These results are taken from PubChem BioAssay AID179 (DTP/NCI, 2004).

As a reminder, the EC50 is the concentration at which the effect is half-maximal. One may read the IC50 as the concentration at which inhibition is half-maximal. A high value points to lower potency.

“And” between values parts separate entries of the source, which are not always exact repeats. Equal entries are not always repeated. The source made the active and inactive calls.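 Rule for the calls: active = compounds giving half or more protection of infected cells from virus-caused growth loss, again on retest; inactive = the rest.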

The subject of the assay is CEM cells HIV-1 protection, formazan growth assay. Description: NCI AIDS Antiviral Assay. The settings on record: for IC50: measured here: growth of uninfected CEM cells. Summed up: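 Screen of anti-HIV-1 activity in human CEM cells using a formazan-based growth measurement at five drug concentrations. Hits with 50% or greater protection were repeated, and confirmation required reproducible complete protection.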

Take `CCN(CC)CCCC(C)Nc1cc(-c2ccccc2)nc2cc(Cl)ccc12` (stereo not given): the EC50 is > 427 µM and the IC50 was 2.45 µM. With `O=C1OC(=O)C(=C\c2ccc3c(c2)OCO3)/C1=C/c1ccc2c(c1)OCO2`, the result was inactive. For `CC1CCc2c(c(CC3CC(=O)NC(=O)C3)nn2-c2ccccc2)C1` (stereo not given), the EC50 was > 200 µM and the IC50 was > 200 µM.

With `COC1OC2COc3ccccc3OC2C(NC(N)=S)C1OC` (stereo not given), the EC50 is > 132 µM and the IC50 is 41.7 µM. With `ClC(Cl)=CC(Cl)(Cl)C(Cl)(Cl)C(Cl)(Cl)Cl`, the EC50 was > 200 µM and the IC50 turned out to be 5.5 µM. In the same order, the values of `Cn1c(=O)c(S(C)=O)c(O)c2ccccc21` (stereo not given) are > 200 µM and > 200 µM. In the same order, the values of `n1onc2c1NC1Nc3nonc3NC1N2` (stereo not given) are > 200 µM and > 200 µM.

As for `Cc1ccc2oc(=O)c(C#N)c(/C=C/c3ccc(Cl)cc3)c2c1`, the EC50 was > 200 µM and the IC50 is > 200 µM. In the case of `CCCCCOCCCCCCCC(=O)OCC1OC(n2cc(C)c(=O)[nH]c2=O)CC1N=[N+]=[N-]` (stereo not given), the result was active.

Consider `O=C1NCCCc2nonc21`, for which the EC50 is > 200 µM and the IC50 was > 200 µM. Turning to `CC(C(=O)O)c1ccc2c(c1)[nH]c1ccc(Cl)cc12` (stereo not given), the EC50 is > 245 µM and the IC50 was determined as 141 µM. In the same order, the values of `Oc1c(C(O)c2ccccn2)ccc2ccccc12` (stereo not given) are > 200 µM and 36.3 µM. Regarding `Nc1n[n+](CC(=O)c2ccccc2)c2sc(-c3ccccc3)nn12`, the EC50 is > 200 µM and the IC50 turned out to be 45.7 µM.

Turning to `CC(C)(C)OC(=O)NCC(=O)NC1c2ccsc2/C(=N/O)[C@H]1O` (stereo not given in full), the EC50 is > 200 µM and the IC50 is > 200 µM. Take `COc1cc2c(c(OC)c1OC)-c1ccc(SC)c(=O)cc1C(NC=O)CC2` (stereo not given): the EC50 is > 0.002 µM and the IC50 came to 0.0011 µM. Taken in the same sequence, the figures for `N#Cc1c(O)c(N=Nc2ccc(Cl)cc2)c(=O)n2c1[nH]c1ccccc12` were > 200 µM and 53.7 µM.

On to `CC1(C)O[C@H](C(=O)O)[C@@H](C(=O)O)O1`, for which the EC50 is > 200 µM and the IC50 was > 200 µM. For `COc1ccc(-c2nc(N)c(C#N)c3c2CCSc2ccc(C)cc2-3)cc1OC`, the EC50 was > 200 µM and the IC50 is 11.7 µM. Taken in the same sequence, the figures for `COc1ccc2c(c1OC)Oc1c(OC)ccc3c1C(C2)NCC3` (stereo not given) were > 170 µM and > 100 µM. Turning to `O=C(CC1NCCS1)OCc1ccc(Br)cc1` (stereo not given), the EC50 was 19.1 µM and the IC50 stood at 81.3 µM. In the case of `O=C1CCNC/C1=C\c1ccccc1`, the EC50 was > 6920 µM and the IC50 amounted to 19.1 µM. For the compound `BrC1=C(Br)C2(SCCS2)[C@H]2C[C@@H]1c1ccccc12`, the EC50 was > 200 µM and the IC50 turned out to be 8.71 µM. In the same order, the values of `Nc1ccn(CC(=O)NCCO)c(=O)n1` are > 200 µM and > 200 µM. As for `CCOC(=O)c1[nH]c(CN(C)Cc2[nH]c(C(=O)OCC)c(C)c2C(=O)OCc2ccccc2)c(C(=O)OCc2ccccc2)c1C`, the EC50 was > 6.03 µM and the IC50 is > 6.03 µM. Take `S=c1[nH]c(=S)c2sc(=S)n(-c3ccccc3)c2[nH]1`: the EC50 is > 115 µM and the IC50 was 56.2 µM. For `C/C(=N\NS(=O)(=O)c1ccc(C)cc1)c1ccc[n+]([O-])n1`, the outcome was inactive. In the case of `Cc1cn(CC2=NCCCN2)c(=O)[nH]c1=O`, the EC50 was > 200 µM and the IC50 is > 200 µM.

For the compound `COC(=O)[C@@H]1[C@H](O)[C@H](C)[C@H](O)[C@@](C)(O)/C=C\C=C(C)C(=O)Nc2c(C)c(OC(C)=O)c3c(c2O)C(=O)C(C)=C2OCOC(=C23)C(C)=C[C@@](C)(O)[C@H](O)[C@@H](C)[C@H]1OC(C)=O`, the EC50 is > 302 µM; the IC50 was 17 µM and > 43.7 µM. Turning to `CCOC(=O)Cc1csc(Nc2ccc(OCC)cc2)n1`, the EC50 is > 214 µM and the IC50 was found to be 145 µM. With `CN(C(=O)C12C3C4C5C3C1(C(=O)O)C5C42)C(C)(C)C` (stereo not given), the EC50 was > 955 µM and the IC50 was > 955 µM. Regarding `CCC1(CC)O[C@H]([C@@H](O)CCc2ccccc2O)[C@@H]([C@@H](O)CCc2ccccc2O)O1`, the EC50 was > 200 µM and the IC50 came out at 33.1 µM. Taken in the same sequence, the figures for `Cc1ccc(C)c(COCCOCn2cc(Br)c(N)nc2=O)c1` were > 200 µM and > 200 µM. For `C/C=C1/CC(C(=O)OC)N(C(=O)OCc2ccccc2)C1=S` (stereo not given), the EC50 is > 200 µM and the IC50 is > 200 µM. Take `O=C1C2[C@@H](C(=O)N1c1ccc(Br)cc1)C13C(=CC2([N+](=O)[O-])[C@@H]2C(=O)N(c4ccc(Br)cc4)C(=O)[C@@H]21)c1ccccc1N3c1ccccc1` (stereo not given in full): the EC50 was > 6.76 µM and the IC50 was > 6.76 µM. `CCOC(=O)c1ccc(N/N=[N+](/[O-])CC2OC(n3ccc(=O)[nH]c3=O)C(O[Si](C)(C)C(C)(C)C)C2O[Si](C)(C)C(C)(C)C)cc1` (stereo not given): the EC50 is > 200 µM and the IC50 amounted to 21.4 µM. Regarding `Cc1n[nH]c(=O)n1/N=C\c1ccccc1`, the EC50 is > 200 µM and the IC50 is > 200 µM.

With `COC(=O)C1=C2Nc3ccccc3[C@@]23CCN(Cc2ccccc2)[C@H]3CC1[C@H](O)CO` (stereo not given in full), the EC50 was > 148 µM and the IC50 was 83.2 µM.

As to `Cc1ccc(/C=C2\NC(=S)N(CN3CCCCC3)C2=O)cc1`, the EC50 was > 200 µM and the IC50 is 29.5 µM. In the same order, the values of `CC(C)CC1C(=O)NCCC(NC(=O)C(N)Cc2ccc(O)cc2)C(=O)NC(Cc2ccccc2)C(=O)NC(Cc2ccccc2)NC1=O` (stereo not given) are > 100 µM and > 100 µM. As for `COc1ccc(N2C(=O)/C(=C(\C)c3cc4ccccc4oc3=O)N=C2c2cc([N+](=O)[O-])ccc2Cl)cc1`, the EC50 was > 10 µM and the IC50 was > 10 µM.

Turning to `N#CC(C(=O)/C(=N/NC(=O)c1ccccc1O)C(C#N)c1ccc(Br)cc1)c1ccc(Br)cc1` (stereo not given), the EC50 is > 23.4 µM and the IC50 was > 23.4 µM. For `O=C1OC(c2ccccc2)=N/C1=C\c1cccc2ccccc12`, the EC50 was > 120 µM and the IC50 was > 120 µM. On to `Nc1nc2cnc(COc3ccccc3)nc2c(=O)[nH]1`, for which the EC50 was > 200 µM and the IC50 is > 200 µM. For `ONC1=Nc2ccccc2OCc2cc(Br)c(Br)cc2COc2ccccc2N=C1NO`, the EC50 was > 200 µM and the IC50 stood at 10 µM. Turning to `O=C(NNC(=S)Nc1cccc(Cl)c1)c1cc(-c2ccccc2)nc2ccccc12`, the EC50 is > 200 µM and the IC50 was found to be 12 µM. Turning to `Cc1ccc(SSc2ccc(C)cc2[N+](=O)[O-])c([N+](=O)[O-])c1`, the EC50 was > 200 µM; the IC50 is 9.33 µM and 14.5 µM.

As to `Nc1nc(CCC(=O)Nc2cccc(C(F)(F)F)c2)cc(-c2ccc3ccccc3c2)n1`, the EC50 is > 575 µM and the IC50 was > 575 µM. As for `COc1ccc(NCC(=O)Nn2c(C)nc3ccc(S(=O)(=O)Nc4ccc(OC)cc4)cc3c2=O)cc1`, the EC50 is > 100 µM and the IC50 was > 100 µM. Take `C#CC(O)/C=C/C(O)CCCC(O)CC#CC(O)C#CCCCCC(O)/C=C/CCCC(O)/C=C/CCCCCCCCCCCCCC(O)C(O)C#CC(=O)O` (stereo not given): the EC50 is > 50.1 µM and the IC50 came to 28.8 µM. Take `CN(C)S(=O)(=O)c1cc(Cl)cc(Cc2cc(Cl)cc(S(=O)(=O)N(C)C)c2O)c1O`: the EC50 is > 74.1 µM and the IC50 was determined as 4.37 µM. Turning to `O=C1CCC2(CC1)SCCCS2`, the EC50 is > 339 µM and the IC50 was > 339 µM. Turning to `Cc1cc2c(nn1)CCc1c-2no[n+]1[O-]`, the EC50 was > 200 µM and the IC50 was found to be 174 µM. In the same order, the values of `Nc1ccccc1/C(O)=C1/CCOC1=O` are > 7.08 µM and > 7.08 µM.

Regarding `COCC12CN(C)C3C4C(OC)C1C3(C(OC)CC2O)C1CC2(O)C(OC)C(O)C4(OC(C)=O)C1C2OC(=O)c1ccccc1` (stereo not given), the outcome was inactive.

In the case of `Cc1cccc(N=Nc2ccc(O)c(CN(C)C)c2)c1`, the EC50 is > 200 µM and the IC50 amounted to 34.7 µM. `CCOC(=O)c1sc2nc(SC)nc(N3CCCCC3)c2c1N`: the EC50 is > 100 µM and the IC50 was > 100 µM.

As for `Clc1ccc(-c2nn3c(CCCCCCCCc4nnc5sc(-c6ccc(Cl)cc6)nn45)nnc3s2)cc1`, the EC50 is > 200 µM and the IC50 worked out at 19.1 µM. For `CCCN=C(N)C(C)=O`, the EC50 was > 1950 µM and the IC50 is > 1950 µM. For `CCOC(=O)CC(O)(c1ccccc1)c1ccccc1`, the EC50 is > 10 µM and the IC50 is > 10 µM. On to `COc1c(C)c(C/C=C(\C)CC/C=C(\C)CC/C=C(\C)CCC=C(C)C)c(OC)c(OC)c1OC`, for which the EC50 was > 200 µM and the IC50 was > 200 µM. On to `O=C1NC(N2CCCCC2)=N/C1=C\c1ccccc1`, for which the EC50 is > 200 µM and the IC50 is > 200 µM. Turning to `O=C(CC(=O)n1nc(-c2ccccc2)c(N=Nc2ccc(Cl)cc2)c1-c1ccccc1)Nc1ccc(Cl)cc1`, the EC50 is > 18.2 µM and the IC50 is > 18.2 µM. As for `O=C(CC(C(=O)c1cccs1)c1ccsc1)c1ccco1` (stereo not given), the EC50 is > 200 µM and the IC50 came to 32.4 µM. Take `Cc1cc(C)c(-c2no/c(=N\S(=O)(=O)c3ccc(Cl)cc3)o2)c(C)c1`: the EC50 is > 200 µM and the IC50 was > 200 µM.

For the compound `C/C(=N\NC(=S)N1CCN(c2ccccn2)CC1)c1ncccn1`, the EC50 was > 39.8 µM and the IC50 worked out at 0.0479 µM. On to `CCC1S(=O)(=O)OCCOS1(=O)=O`, for which the EC50 was > 1070 µM and the IC50 was found to be 64.6 µM.

Turning to `O=C1CC2CCCC(=O)C23CCC[C@H]13` (stereo not given in full), the EC50 was > 324 µM and the IC50 was > 324 µM. For `COc1ccc2[nH]c(C[P+](c3ccccc3)(c3ccccc3)c3ccccc3)cc2c1`, the EC50 was > 200 µM and the IC50 came to 12 µM. Regarding `COc1cccc(/C=N/[N-]C(=O)c2ccncc2)c1[O-].[Cu+2].[OH3+]`, the EC50 was > 10.7 µM and the IC50 is > 10.7 µM. As for `Cc1cc2c(c(C(N)=O)c1C)-c1cccc(F)c1C2=O`, the outcome was inactive.
